Assay results as given in patent publication US8852604B2, “Multiepitope vaccine for Her2/neu-associated cancers” (Pevion Biotech AG, priority 2009, dated 2014).
No end group written: not given here.

Assay: physchem
For “PESFDGDPASNTAPLQPRVLQGLPREYVNARHSLPYMPIWKFPDEEGAC [PEV604]”, the solubility was 500 to 1500 µg/mL.
For “RVLQGLPREYVNARHSPESFDGDPASNTAPLQPYMPIWKFPDEEGAC [PEV607, RVLQGLPREYVNARHS PESFDGDPASNTAPLQP YMPIWKFPDEEGAC]”, the solubility was 500 to 1500 µg/mL.
Work on YMPIWKFPDEEGAC [PEV603, YMPIWKFPDEEGAC] yielded a solubility of 2000 to 3000 µg/mL.

Assay: not given
Source text: The polydispersity of a virosomal preparation is an indication for the homogeneity of the particle size in an aqueous solution, with lower polydispersity being associated with a greater degree of homogeneity of size over all virosomes present in the composition.
For “RVLQGLPREYVNARHC [PEV602, RVLQGLPREYVNARHC]”, the “Stabilty(I)IRIV” value was “limited”.
In the case of “PESFDGDPASNTAPLQPRVLQGLPREYVNARHSYMPIWKFPDEEGAC [PEV605, PESFDGDPASNTAPLQP RVLQGLPREYVNARHS YMPIWKFPDEEGAC]”, the “Stabilty(I)IRIV” value is reported as “limited”.
In the case of “RVLQGLPREYVNARHSYMPIWKFPDEEGASPESFDGDPASNTAPLQPC [PEV608, RVLQGLPREYVNARHS YMPIWKFPDEEGAS PESFDGDPASNTAPLQPC]”, the “Stabilty(I)IRIV” value is reported as “limited”.
For “PESFDGDPASNTAPLQPRVLQGLPREYVNARHSLPYMPIWKFPDEEGAC [PEV604]”, the “Stabilty(I)IRIV” value was “limited”.
For PESFDGDPASNTAPLQPGGGGGC [PEV601], the “Stabilty(I)IRIV” value was “acceptable”.
With “RVLQGLPREYVNARHSPESFDGDPASNTAPLQPYMPIWKFPDEEGAC [PEV607, RVLQGLPREYVNARHS PESFDGDPASNTAPLQP YMPIWKFPDEEGAC]” the “Stabilty(I)IRIV” value was “limited”.
With “YMPIWKFPDEEGASRVLQGLPREYVNARHSPESFDGDPASNTAPLQPC [PEV610, YMPIWKFPDEEGAS RVLQGLPREYVNARHS PESFDGDPASNTAPLQPC]” the “Stabilty(I)IRIV” value was “limited”.
With “PESFDGDPASNTAPLQPYMPIWKFPDEEGASRVLQGLPREYVNARHC [PEV606, PESFDGDPASNTAPLQP YMPIWKFPDEEGAS RVLQGLPREYVNARHC]” the “Stabilty(I)IRIV” value was “limited”.
In the case of YMPIWKFPDEEGAC [PEV603, YMPIWKFPDEEGAC], the “Stabilty(I)IRIV” value is reported as “limited”.
With “YMPIWKFPDEEGASPESFDGDPASNTAPLQPRVLQGLPREYVNARHC [PEV609, YMPIWKFPDEEGAS PESFDGDPASNTAPLQP RVLQGLPREYVNARHC]” the “Stabilty(I)IRIV” value was “limited”.

Assay: physchem
Remark: another data set of the same source
For “RVLQGLPREYVNARHC [PEV602, RVLQGLPREYVNARHC]”, the solubility was 500 µg/mL.
With “PESFDGDPASNTAPLQPRVLQGLPREYVNARHSYMPIWKFPDEEGAC [PEV605, PESFDGDPASNTAPLQP RVLQGLPREYVNARHS YMPIWKFPDEEGAC]” the solubility was 800 µg/mL.
In the case of “RVLQGLPREYVNARHSYMPIWKFPDEEGASPESFDGDPASNTAPLQPC [PEV608, RVLQGLPREYVNARHS YMPIWKFPDEEGAS PESFDGDPASNTAPLQPC]”, the solubility is reported as 800 µg/mL.
In the case of “PESFDGDPASNTAPLQPRVLQGLPREYVNARHSLPYMPIWKFPDEEGAC [PEV604]”, the solubility is reported as 800 µg/mL.
PESFDGDPASNTAPLQPGGGGGC [PEV601] showed a solubility of 2000 to 3000 µg/mL.
For “RVLQGLPREYVNARHSPESFDGDPASNTAPLQPYMPIWKFPDEEGAC [PEV607, RVLQGLPREYVNARHS PESFDGDPASNTAPLQP YMPIWKFPDEEGAC]”, the solubility was 800 µg/mL.
In the case of “YMPIWKFPDEEGASRVLQGLPREYVNARHSPESFDGDPASNTAPLQPC [PEV610, YMPIWKFPDEEGAS RVLQGLPREYVNARHS PESFDGDPASNTAPLQPC]”, the solubility is reported as 800 µg/mL.
“PESFDGDPASNTAPLQPYMPIWKFPDEEGASRVLQGLPREYVNARHC [PEV606, PESFDGDPASNTAPLQP YMPIWKFPDEEGAS RVLQGLPREYVNARHC]” gave a solubility of 800 µg/mL.
In the case of YMPIWKFPDEEGAC [PEV603, YMPIWKFPDEEGAC], the solubility is reported as < 200 µg/mL.
“YMPIWKFPDEEGASPESFDGDPASNTAPLQPRVLQGLPREYVNARHC [PEV609, YMPIWKFPDEEGAS PESFDGDPASNTAPLQP RVLQGLPREYVNARHC]” gave a solubility of 800 µg/mL.
